Results published in patent US7598072B2 (priority 2003, dated 2009).

What was measured:
[1] = test system: RCASBP(A)-EGFP (ASLV-A) in 293(TVA800) cells; type: cell-based, avian sarcoma and leukosis virus
[2] = test system: RCASBP(A)-EGFP (ASLV-A) in 293(TVA950) cells; type: cell-based, avian sarcoma and leukosis virus
[3] = 15 mM MβCD, 15 minutes, no NH4Cl
[4] = 30 mM NH4Cl for 10 hours, added at 20 minutes or later after initiating infection
[5] = 30 mM NH4Cl for 10 hours, added at time of initiating infection or 10 minutes later
[6] = 6 hour block with 30 mM NH4Cl, QPCR
[7] = 6 hour block with 30 mM NH4Cl, flow cytometry

| Compound | loss of infectivity ([1]; 15 mM MβCD 15 minutes combined with 6 hour 30 mM NH4Cl block at time of initiating infection) | effect of cyclodextrin treatment by itself on viral infectivity [1, 3] | effect of cyclodextrin treatment by itself on viral infectivity [2, 3] | effect upon viral infectivity (QPCR) [1, 4] | effect on infection (QPCR of reverse-transcribed DNA) [1, 5] | viral infection during the period of inhibitor treatment ([1]; 30 mM NH4Cl, 6 hours) | level of infection (late viral DNA products) after NH4Cl release, relative to untreated cells [1, 6] | efficiency of infection (EGFP-positive cells) relative to untreated cells [1, 7] | infectivity on increasing time of NH4Cl treatment to 12 hours ([1]; 12 hours NH4Cl, data not shown) | effect upon viral infectivity (QPCR) [2, 4] | effect on infection (QPCR of reverse-transcribed DNA) [2, 5] | viral infection during the period of inhibitor treatment ([2]; 30 mM NH4Cl, 6 hours) | decrease in viral infectivity ([2]; 6 hour 30 mM NH4Cl, irrespective of whether cyclodextrin had been added) | number of viral DNA products after NH4Cl release, relative to untreated cells [2, 6] | efficiency of infection (EGFP-positive cells) relative to untreated cells [2, 7] | infectivity on increasing time of NH4Cl treatment to 12 hours ([2]; 12 hours NH4Cl, data not shown) |
| --- | --- | --- | --- | --- | --- | --- | --- | --- | --- | --- | --- | --- | --- | --- | --- | --- |
| methyl-β-cyclodextrin [MβCD] | 50% | only a minor effect | only a minor effect | – | – | – | – | – | – | – | – | – | – | – | – | – |
| Cl.N [NH4Cl, ammonium chloride] | – | – | – | greatly reduced effect | complete block | completely arrested | approximately 60% | 85% | did not affect | greatly reduced effect | complete block | completely arrested | approximately 80% | 10% | 20% | further decrease |
